Literature values as cited in US8846744B2, “Pharmaceutical compositions of co-crystals of tramadol and coxibs” (Laboratorios del Dr. Esteve, S.A., priority 2010, dated 2014).

solubility in water: practically insoluble
SMILES: Cc1ccc(-c2cc(C(F)(F)F)nn2-c2ccc(S(N)(=O)=O)cc2)cc1 [Celecoxib, 4-[5-(4-methylphenyl)-3-(trifluoromethyl)pyrazol-1-yl]benzenesulfonamide]
